In patent US7947830B2, “Substituted propenyl piperazine derivatives as novel inhibitors of histone deacetylase” (Janssen Pharmaceutica N.V., priority 2004, dated 2011):
Read-outs that look alike come from different tables or passages of the source.

How the values were obtained:
[1] = molecular target: histone deacetylase (HeLa nuclear extracts); test: In vitro assay for inhibition of histone deacetylase (HDAC Fluorescent Activity Assay, Fluor de Lys); assay type: biochemical; conditions: Fluor de Lys substrate
Text: The in vitro assay for inhibition of histone deacetylase (see example C.1) measures the inhibition of HDAC enzymatic activity obtained with the compounds of formula (I).
The HDAC Fluorescent Activity Assay/Drug Discovery Kit of Biomol (cat.No: AK-500-0001) was used. The HDAC Fluorescent Activity Assay is based on the Fluor de Lys (Fluorogenic […] deAcetylase Lysyl) substrate and developer combination. The Fluor de Lys substrate, comprises an acetylated lysine side chain. Deacetylation of the substrate sensitizes the substrate so that, in the second step, treatment with the Fluor de Lys developer produces a fluorophore.
After 30 min, 1 volume of the developer was added. […] For each experiment, controls (containing HeLa nuclear extract and buffer), a blank incubation (containing buffer but no HeLa nuclear extract) and samples (containing compound dissolved in DMSO and further diluted in buffer and HeLa nuclear extract) were run in parallel. […] All sample were tested 4 times. In each test the blank value was substracted from both the control and the sample values. The control sample represented 100% of substrate deactylation. For each sample the fluorescence was expressed as a percentage of the mean value of the controls. […] Herein the effects of test compounds are expressed as pIC50 (the negative log value of the IC50-value) (see Table F-3).

[2] = test system: A2780 ovarian carcinoma cells; test: Antiproliferative activity on A2780 cells (MTT); assay type: cell-based, human; conditions: Homo sapiens, A2780, 96 h, four days of incubation, read-out: Cellular activity pIC50 C.2. (converted)
Experimental: Cellular activity of the compounds of formula (I) was determined on A2780 tumour cells using a […] assay for cell toxicity or survival (Mosmann Tim, Journal of Immunological Methods 65: 55-63, 1983)(see example C.2).
All compounds tested were dissolved in DMSO and further dilutions were made in culture medium. Final DMSO concentrations never exceeded 0.1% (v/v) in cell proliferation assays. Controls contained A2780 cells and DMSO without compound and blanks contained DMSO but no cells. MTT was dissolved at 5 mg/ml in PBS. A glycine buffer comprised of 0.1 M glycine and 0.1 M NaCl buffered to pH 10.5 with NaOH (1 N) was prepared (all reagents were from Merck).
The human A2780 ovarian carcinoma cells (a kind gift from Dr. T. C. Hamilton [Fox Chase Cancer Centre, Pennsylvania, USA]) were cultured in RPMI 1640 medium supplemented with 2 mM L-glutamine, 50 μg/ml gentamicin and 10% fetal calf serum.
Cells were routinely kept as monolayer cultures at 37° C. in a humidified 5% CO2 atmosphere. Cells were passaged once a week using a trypsin/EDTA solution at a split ratio of 1:40. All media and supplements were obtained from Life Technologies. Cells were free of mycoplasma contamination as determined using the Gen-Probe Mycoplasma Tissue Culture kit (supplier: BioMérieux).
Cells were seeded in NUNC™ 96-well culture plates (Supplier: Life Technologies) and allowed to adhere to the plastic overnight. Densities used for plating were 1500 cells per well in a total volume of 200 μl medium. After cell adhesion to the plates, medium was changed and drugs and/or solvents were added to a final volume of 200 μl. Following four days of incubation, medium was replaced by 200 μl fresh medium and cell density and viability was assessed using an MTT-based assay. To each well, 25 μl […] solution was added and the cells were further incubated for 2 hours at 37° C. The medium was then carefully aspirated and the blue MTT-formazan product was solubilized by addition of 25 μl glycine buffer followed by 100 μl of DMSO. […] Within an experiment, the results for each experimental condition are the mean of 3 replicate wells. For initial screening purposes, compounds were tested at a single fixed concentration of 10^−6 M. For active compounds, the experiments were repeated to establish full concentration-response curves. For each experiment, controls (containing no drug) and a blank incubation (containing no cells or drugs) were run in parallel. The blank value was subtracted from all control and sample values. For each sample, the mean value for cell growth (in absorbance units) was expressed as a percentage of the mean value for cell growth of the control. […] Herein the effects of test compounds are expressed as pIC50 (the negative log value of the IC50-value)(see Table F-3).

[3] = Kinetic solubility in aqueous media (nephelometer, C.3.a); assay type: physicochemical; conditions: aqueous buffer, kinetic from dmso stock; score; phosphate citrate buffer pH 7.4, turbidity
Experimental: The solubility of a compound measures the ability of a compound to stay in solution. In a first method the ability of a compound to stay in aqueous solution upon dilution (see example C.3.a) is measured. DMSO-stock solutions are diluted with a single aqueous buffer solvent in 3 consecutive steps. For every dilution turbidity is measured with a nephelometer.
In the first dilution step, 10 μl of a concentrated stock-solution of the active compound, solubilized in DMSO (5 mM), was added to 100 μl phosphate citrate buffer pH 7.4 and mixed. In the second dilution step, an aliquot (20 μl) of the first dilution step was further dispensed in 100 μl phosphate citrate buffer pH 7.4 and mixed. Finally, in the third dilution step, a sample (20 μl) of the second dilution step was further diluted in 100 μl phosphate citrate buffer pH 7.4 and mixed. All dilutions were performed in 96-well plates. Immediately after the last dilution step the turbidity of the three consecutive dilution steps were measured with a nephelometer. Dilution was done in triplicate for each compound to exclude occasional errors. Based on the turbidity measurements a ranking is performed into 3 classes. Compounds with high solubility obtained a score of 3 and for this compounds the first dilution is clear. Compounds with medium solubility obtained a score of 2. For these compounds the first dilution is unclear and the second dilution is clear.

[4] = test system: p21 promoter reporter A2780 tumour in nude mice; test: p21 promoter induction in vivo method, tumour fluorescence (C.6.c); conditions: oral administration, daily during 6 days, 20-40 mpk
Experimental: Another method tests the capacity of compounds to induce p21 as the consequence of HDAC inhibition at the cellular level. […] The reporter gene is a fluorescent protein and the expression of the reporter gene is measured as the amount of fluorescent light emitted (see example C.6.b.). The last method is an in vivo method wherein mice are used for screening the pharmaceutical activity of a compound. The above described stably transformed tumour cells can be administered to mice in an amount sufficient to effect production of a tumour. After the tumour cells had sufficient time to form a tumour, a potentially active compound can be administered to the animals and the effect of said compound on the tumour cells is evaluated by measuring the expression of the reporter gene. Incubation with pharmaceutical active compounds will result in an increase of reporter gene expression compared to the control levels (see example C.6.c.)
A selected clone was injected subcutaneous (10^7 cells/200 μl) into the flank of nude mice and a calliper measurable tumour was obtained after 12 days. […] Tumours were evaluated for fluorescence by the in-house developed Automated Whole Body Imaging System (Fluorescent stereomicroscope type Olympus® SZX12 equipped with a GFP filter and coupled to a CCD camera type JAI® CV-M90 controlled by a software package based on the IMAQ Vision Software from National Instruments®). […]

[5] = not given; remark: listed apart in the source
[6] = Metabolic stability with rat hepatocytes cell culture (C.5.b); assay type: in vitro ADME; conditions: 5 μM
Text: Metabolism of drugs means that a lipid-soluble xenobiotic or endobiotic compound is enzymatically transformed into (a) polar, water-soluble, and excretable metabolite(s). The major organ for drug metabolism is the liver. […] However, some metabolites may have enhanced activity or toxic effects. Thus drug metabolism may include both “detoxication” and “toxication” processes. One of the major enzyme systems that determine the organism's capability of dealing with drugs and chemicals is represented by the cytochrome P450 monooxygenases, which are NADPH dependent enzymes. Metabolic stability of compounds can be determined in vitro with the use of subcellular human tissue (see example C.5.a.). Here metabolic stability of the compounds is expressed as % of drug metabolised after 15 minutes incubation of these compounds with microsomes. Quantitation of the compounds was determined by LC-MS analysis. Metabolic stability of compounds can also be determined by calculating the half live of compounds in rat hepatocyte cells (see example C.5.b.). […]
Samples were prepared for LC-MS by addition of two volumes of DMSO. […] Of the resulting supernatant 50 μl was analysed by LC-MS. […]
Total injection volume of samples was 50 μL. […] The mass spectrometer was operated in positive ion mode in SIM adjusted to the mass of M+H with a scan width of 1 Da for quantification purposes. […]

Enzymatic activity pIC50 C.1. [1]	IC50 [2]	solubility [3]	in vitro half-live [6]	SMILES	other results
				COc1cc(N)c(Cl)cc1C(=O)NC1CCN(CCCOc2ccc(F)cc2)CC1OC (stereo not drawn) [Cisapride]	% metabolism (human, 15 min, 5 μM): 45%
8.2	12.6 nM	> 455 µM		O=C(NO)c1cnc(N2CCN(C(/C=C/c3ccccc3)CO)CC2)nc1 (stereo not drawn) [Compound 1]	tumour fluorescence ranked relative to R306465 [4]: better than R306465; melting point [5]: 187 °C
8.2	31.6 nM	> 455 µM	23 min	O=C(NO)c1cnc(N2CCN(C(/C=C/c3ccc(Cl)cc3)CO)CC2)nc1 (stereo not drawn) [Compound 4]	
			8 min	O=C(NO)c1cnc(N2CCN(S(=O)(=O)c3ccc4ccccc4c3)CC2)nc1 [Compound R306465, reference compound]	
				CCCO [propanol]	% metabolism (after 15 min incubation with active microsomes, compound 5 μM): 25%
